In ChEMBL document CHEMBL6071179, “New LsrK Ligands as AI-2 Quorum Sensing Interfering Compounds against Biofilm Formation” (J Med Chem, 2024):
Calls of active or inactive are those of the source. No cut-off for these calls is given here.

Assays:
Staphylococcus aureus [1] = test: Antibiofilm activity against Staphylococcus aureus BHICC at 500 ug/ml incubated for 24 hrs by crystal violet staining based microplate reader assay; assay type: functional; details: dose 500 µg/ml
Pseudomonas aeruginosa [2] = test: Antibiofilm activity against Pseudomonas aeruginosa PAO1 at 500 ug/ml incubated for […] by crystal violet staining based microplate reader assay; assay type: functional; details: dose 500 µg/ml
[3] = biological target: T1, Autoinducer-2 kinase (Bacteria) (UniProt P77432); test: Binding affinity to LSRK (unknown origin) assessed as change in melting temperature at 500 ug/ml by SYPRO orange staining based differential scanning fluorimetry assay; details: dose 500.0 µg/ml
T1 sequence (whole entry): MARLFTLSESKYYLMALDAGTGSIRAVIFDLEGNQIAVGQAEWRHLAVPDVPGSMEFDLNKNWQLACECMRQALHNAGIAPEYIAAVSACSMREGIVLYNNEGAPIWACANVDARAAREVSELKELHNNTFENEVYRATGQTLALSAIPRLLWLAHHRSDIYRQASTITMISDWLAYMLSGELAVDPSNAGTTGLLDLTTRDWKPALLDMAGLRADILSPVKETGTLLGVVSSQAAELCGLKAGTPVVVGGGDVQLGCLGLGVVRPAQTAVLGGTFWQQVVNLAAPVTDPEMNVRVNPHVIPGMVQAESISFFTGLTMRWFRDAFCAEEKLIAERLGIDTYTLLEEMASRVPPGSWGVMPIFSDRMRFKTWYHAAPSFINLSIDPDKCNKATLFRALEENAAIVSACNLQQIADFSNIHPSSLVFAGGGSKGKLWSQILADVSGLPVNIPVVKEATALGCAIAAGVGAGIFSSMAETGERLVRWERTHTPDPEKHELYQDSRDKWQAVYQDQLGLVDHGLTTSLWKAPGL

[4] = biological target: T1, Autoinducer-2 kinase (Bacteria); test: Binding affinity to LsrK (unknown origin) assessed as reduction in fluorescence intensity by intrinsic tryptophan fluorescence spectroscopy
Staphylococcus aureus [5] = test: Inhibition of Staphylococcus aureus bacterial growth at 500 ug/ml incubated for 20 hrs by microplate reader assay; assay type: functional, organism-based; details: dose 500.0 µg/ml
Pseudomonas aeruginosa [6] = test: Inhibition of Pseudomonas aeruginosa bacterial growth at 500 ug/ml incubated for 20 hrs by microplate reader assay; assay type: functional, organism-based; details: dose 500.0 µg/ml
[7] = Inhibition of Vibrio harveyi BB170 AI-2 mediated Quorum sensing system assessed as reduction in bioluminescence incubated for 8 hrs
Vibrio harveyi [8] = test: Inhibition of Vibrio harveyi BB120 bacterial growth at 4 to 500 ug/ml incubated for 24 hrs by resazurin dye based microplate reader assay; assay type: functional, organism-based; details: dose 4-500 µg/ml
Vibrio harveyi [9] = test: Inhibition of Vibrio harveyi BB886 bacterial growth at 4 to 500 ug/ml incubated for 24 hrs by resazurin dye based microplate reader assay; assay type: functional, organism-based; details: dose 4-500 µg/ml
[10] = Inhibition of Vibrio harveyi BB120 AI-2 mediated Quorum sensing system assessed as reduction in bioluminescence incubated for 8 hrs
[11] = Inhibition of Vibrio harveyi BB886 AI-1 mediated Quorum sensing system assessed as reduction in bioluminescence incubated for 8 hrs
[12] = biological target: T1, Autoinducer-2 kinase (Bacteria); test: Binding affinity to LSRK (unknown origin) assessed as change in melting temperature at 500 ug/ml in presence of ATP by SYPRO orange staining based differential scanning fluorimetry assay; details: dose 500.0 µg/ml
[13] = biological target: T1, Autoinducer-2 kinase (Bacteria); test: Binding affinity to LsrK (unknown origin) assessed as reduction in fluorescence intensity at 1 uM by intrinsic tryptophan fluorescence spectroscopy
[14] = biological target: T1, Autoinducer-2 kinase (Bacteria); test: Binding affinity to LsrK (unknown origin) assessed as decrease in ellipticity at 2 to 20 uM by Far-UV CD spectra; details: dose 2-20 µM
[15] = biological target: T1, Autoinducer-2 kinase (Bacteria); test: Binding affinity to LsrK (unknown origin) by STD NMR assay

**Q.** Which MBIC50 (Staphylococcus aureus [1]) does the source give for CCOC(=O)N1CCC(=C2c3ccc(Cl)cc3CCc3cccnc32)CC1 [LORATADINE] here?
**A.** 23 µg/mL

**Q.** Which MBIC50 (Staphylococcus aureus [1]) does the source give for COC(=O)[C@H](Cc1ccccc1)NC(=O)C(O)CO (stereo partly drawn) here?
**A.** 173 µg/mL

**Q.** For CC(=O)N[C@@H](CS)C(=O)O [ACETYLCYSTEINE], which MBIC50 (Pseudomonas aeruginosa [2]) is on record?
**A.** 14 µg/mL

**Q.** For COC(=O)[C@H](C)NC(=O)[C@H](Cc1ccccc1)NC(=O)[C@@H]1COC(C)(C)O1, which MBIC50 (Staphylococcus aureus [1]) is on record?
**A.** 82.2 µg/mL

**Q.** And the MBIC50 (Pseudomonas aeruginosa [2])?
**A.** 25.4 µg/mL

**Q.** And the ΔTm [3]?
**A.** > 1 °C

**Q.** What about the Activity [4] of the same compound?
**A.** Dose-Dependent Effect

**Q.** With O=C(NCc1ccccc1)C1COC2(CCCCC2)O1 (stereo not drawn) as the compound, how does the MBIC50 (Staphylococcus aureus [1]) read?
**A.** 1913 µg/mL

**Q.** With CC1(C)OCC(C(=O)NCc2ccccc2)O1 (stereo not drawn) as the compound, how does the MBIC50 (Pseudomonas aeruginosa [2]) read?
**A.** 36.6 µg/mL

**Q.** With O=C(N[C@@H](Cc1ccccc1)C(=O)O)C1COC2(CCCCC2)OC1 as the compound, how does the MBIC50 (Staphylococcus aureus [1]) read?
**A.** 20.6 µg/mL

**Q.** And the MBIC50 (Pseudomonas aeruginosa [2])?
**A.** 50 µg/mL

**Q.** Which MBIC50 (Pseudomonas aeruginosa [2]) does the source give for O=C(NCc1ccccc1)C1COC2(CCCCC2)OC1 here?
**A.** 40.8 µg/mL

**Q.** For c1ccc(-c2cc(C3COC4(CCCCC4)O3)[nH]n2)cc1 (stereo not drawn), which MBIC50 (Staphylococcus aureus [1]) is on record?
**A.** 45.1 µg/mL

**Q.** And the MBIC50 (Pseudomonas aeruginosa [2])?
**A.** 22.5 µg/mL

**Q.** What about the inhibition (Staphylococcus aureus [5]) of the same compound?
**A.** inactive

**Q.** And the inhibition (Pseudomonas aeruginosa [6])?
**A.** inactive

**Q.** Which results are given for COC(=O)[C@H](C)NC(=O)[C@H](Cc1ccccc1)NC(=O)[C@H]1COC(C)(C)O1?
**A.** MBIC50 (Staphylococcus aureus [1]): 169.7 µg/mL; MBIC50 (Pseudomonas aeruginosa [2]): 31.7 µg/mL; Activity [4]: Dose-Dependent Effect

**Q.** For CCCCCCCN(CCN(CC(=O)O)CC(=O)O)CC(=O)O, which IC50 [7] is on record?
**A.** 0.4 µM

**Q.** Which results are given for CC1(C)OCC(C(=O)N[C@@H](Cc2ccccc2)C(=O)O)O1 (stereo partly drawn)?
**A.** MBIC50 (Staphylococcus aureus [1]): 34.6 µg/mL; MBIC50 (Pseudomonas aeruginosa [2]): 27.7 µg/mL; inhibition (Staphylococcus aureus [5]): inactive; inhibition (Pseudomonas aeruginosa [6]): inactive; inhibition (Vibrio harveyi [8]): inactive; inhibition (Vibrio harveyi [9]): inactive; inhibition [10]: Active; inhibition [7]: Active; inhibition [11]: inactive; ΔTm [12]: > 2 °C

**Q.** Which MBIC50 (Staphylococcus aureus [1]) does the source give for O=C(NCc1ccccc1)C(O)CO (stereo not drawn) here?
**A.** 128.2 µg/mL

**Q.** Which MBIC50 (Staphylococcus aureus [1]) does the source give for COC(=O)[C@H](C)NC(=O)[C@H](Cc1ccccc1)NC(=O)C1COC(C)(C)O1 (stereo partly drawn) here?
**A.** 152.3 µg/mL

**Q.** And the MBIC50 (Pseudomonas aeruginosa [2])?
**A.** 29.1 µg/mL

**Q.** What about the inhibition (Staphylococcus aureus [5]) of the same compound?
**A.** inactive

**Q.** And the inhibition (Pseudomonas aeruginosa [6])?
**A.** inactive

**Q.** And the inhibition (Vibrio harveyi [8])?
**A.** inactive

**Q.** What about the inhibition (Vibrio harveyi [9]) of the same compound?
**A.** inactive

**Q.** And the inhibition [10]?
**A.** Active

**Q.** And the inhibition [7]?
**A.** Active

**Q.** And the inhibition [11]?
**A.** inactive

**Q.** What about the ΔTm [12] of the same compound?
**A.** > 2 °C

**Q.** Which MBIC50 (Staphylococcus aureus [1]) does the source give for CC1(C)OC[C@H](C(=O)N[C@@H](Cc2ccccc2)C(=O)O)O1 here?
**A.** 25.4 µg/mL

**Q.** What about the MBIC50 (Pseudomonas aeruginosa [2]) of the same compound?
**A.** 30.4 µg/mL

**Q.** What about the ΔTm [3] of the same compound?
**A.** > 1 °C

**Q.** What about the Activity [4] of the same compound?
**A.** Dose-Dependent Effect

**Q.** And the Flu intensity [13]?
**A.** 6%

**Q.** And the Activity [14]?
**A.** Dose-Dependent Effect

**Q.** What does the source list for O=C(NCCc1ccccc1)C1COC2(CCCCC2)OC1?
**A.** MBIC50 (Staphylococcus aureus [1]): 16.2 µg/mL; MBIC50 (Pseudomonas aeruginosa [2]): 6.2 µg/mL; inhibition (Staphylococcus aureus [5]): inactive; inhibition (Pseudomonas aeruginosa [6]): inactive; inhibition (Vibrio harveyi [8]): inactive; inhibition (Vibrio harveyi [9]): inactive; inhibition [10]: Active; inhibition [7]: Active; inhibition [11]: inactive; ΔTm [3]: > 1 °C; ΔTm [12]: > 2 °C; Activity [4]: Dose-Dependent Effect; Activity [14]: Dose-Dependent Effect; Activity [15]: Active

**Q.** For COC(=O)[C@H](Cc1ccccc1)NC(=O)C1COC2(CCCCC2)O1 (stereo partly drawn), which MBIC50 (Staphylococcus aureus [1]) is on record?
**A.** 71.1 µg/mL

**Q.** What about the MBIC50 (Pseudomonas aeruginosa [2]) of the same compound?
**A.** 60.5 µg/mL

**Q.** For O=C(N[C@@H](Cc1ccccc1)C(=O)O)C1COC2(CCCCC2)O1 (stereo partly drawn), which MBIC50 (Staphylococcus aureus [1]) is on record?
**A.** 61.5 µg/mL

**Q.** What about the MBIC50 (Pseudomonas aeruginosa [2]) of the same compound?
**A.** 46.2 µg/mL

**Q.** And the inhibition (Staphylococcus aureus [5])?
**A.** inactive

**Q.** And the inhibition (Pseudomonas aeruginosa [6])?
**A.** inactive

**Q.** Which MBIC50 (Staphylococcus aureus [1]) does the source give for COC(=O)[C@H](C)NC(=O)[C@H](Cc1ccccc1)NC(=O)C1OCC2(CCCCC2)CO1 here?
**A.** 55.9 µg/mL

**Q.** And the MBIC50 (Pseudomonas aeruginosa [2])?
**A.** 483 µg/mL

**Q.** With Cn1nc(C2COC3(CCCCC3)O2)cc1-c1ccccc1 (stereo not drawn) as the compound, how does the MBIC50 (Staphylococcus aureus [1]) read?
**A.** 121.4 µg/mL

**Q.** What about the MBIC50 (Pseudomonas aeruginosa [2]) of the same compound?
**A.** 373 µg/mL

**Q.** And the inhibition (Staphylococcus aureus [5])?
**A.** inactive

**Q.** What about the inhibition (Pseudomonas aeruginosa [6]) of the same compound?
**A.** inactive

**Q.** With O=C(NCCc1ccccc1)C1COC2(CCCCC2)O1 (stereo not drawn) as the compound, how does the MBIC50 (Staphylococcus aureus [1]) read?
**A.** 92.3 µg/mL

**Q.** And the MBIC50 (Pseudomonas aeruginosa [2])?
**A.** 38.3 µg/mL

**Q.** For COC(=O)[C@H](Cc1ccccc1)NC(=O)C1COC2(CCCCC2)OC1, which MBIC50 (Staphylococcus aureus [1]) is on record?
**A.** 85.8 µg/mL

**Q.** With CC1(C)OC[C@@H](C(=O)N[C@@H](Cc2ccccc2)C(=O)O)O1 as the compound, how does the MBIC50 (Staphylococcus aureus [1]) read?
**A.** 26.3 µg/mL

**Q.** And the MBIC50 (Pseudomonas aeruginosa [2])?
**A.** 34.4 µg/mL

**Q.** And the ΔTm [3]?
**A.** > 1 °C

**Q.** And the Activity [4]?
**A.** Dose-Dependent Effect

**Q.** And the Flu intensity [13]?
**A.** 12%

**Q.** And the Activity [14]?
**A.** Dose-Dependent Effect

**Q.** For Cn1nc(-c2ccccc2)cc1C1COC2(CCCCC2)O1 (stereo not drawn), which MBIC50 (Staphylococcus aureus [1]) is on record?
**A.** 55.2 µg/mL
